Measurements published in paper PMC11079024, “Identification of a family of species-selective complex I inhibitors as potential anthelmintics” (Nature Communications, 2024).
Where “and” joins values, the source holds several entries; their conditions need not be identical. Equal entries are not always repeated. Where two headings read alike, the source gives them in different places.

Tests used:
[1] = tested on: L1 wild-type C. elegans; conditions: drug + KCN, 15-hour; for KCN survival assay value relative to DMSO control, Mean: mean of replicates; for KCN survival assay value relative to DMSO control: single replicates
[2] = tested on: L1 wild-type C. elegans; test: whole plant or invertebrate; conditions: Caenorhabditis elegans, 15 h
[3] = tested on: L1 wild-type C. elegans; test: 15-hour motility assay with drug alone (no KCN); format: cell-based, Caenorhabditis elegans; conditions: without KCN, 15-hour; for Value relative to DMSO control, drug alone (without KCN), Mean: mean of replicates; for Value relative to DMSO control, drug alone (without KCN): single replicates
[4] = tested on: C. elegans; test: C. elegans chemical screens of RIKEN NPD libraries at 50 μM (hit identification in KCN survival and development/viability assays); format: cell-based, Caenorhabditis elegans; conditions: screened at 50 μM in triplicate; […]; KCN = KCN survival assay, Dev. & Viability = development/viability assay
[5] = read-out: C. elegans KCN survival assay LC50

SMILES	KCN survival assay value relative to DMSO control, Mean ([1]; 0.025 µM)	KCN survival assay value relative to DMSO control ([1]; 0.025 µM)	KCN survival assay value relative to DMSO control, Mean ([1]; 0.05 µM)	KCN survival assay value relative to DMSO control ([1]; 0.05 µM)	KCN survival assay value relative to DMSO control, Mean ([1]; 0.1 µM)	KCN survival assay value relative to DMSO control ([1]; 0.1 µM)	KCN survival assay value relative to DMSO control, Mean ([1]; 0.2 µM)	KCN survival assay value relative to DMSO control, Mean ([1]; 0.4 µM)	KCN survival assay value relative to DMSO control, Mean ([1]; 0.8 µM)	KCN survival assay value relative to DMSO control, Mean ([1]; 3.1 µM)	KCN survival assay value relative to DMSO control, Mean ([1]; 6.3 µM)	KCN survival assay value relative to DMSO control, Mean ([1]; 12.5 µM)	KCN survival assay value relative to DMSO control, Mean ([1]; 25 µM)	LC50 [2, 5]	Value relative to DMSO control, drug alone (without KCN), Mean ([3]; 0.025 µM)	Value relative to DMSO control, drug alone (without KCN) ([3]; 0.025 µM)	Value relative to DMSO control, drug alone (without KCN), Mean ([3]; 0.05 µM)	Value relative to DMSO control, drug alone (without KCN) ([3]; 0.05 µM)	Value relative to DMSO control, drug alone (without KCN), Mean ([3]; 0.1 µM)	Value relative to DMSO control, drug alone (without KCN) ([3]; 0.1 µM)	other results
O=C(Nc1cc(Cl)cc(Cl)c1O)c1c(O)c(Cl)cc(Cl)c1Cl [Oxyclozanide]	1.036	1.103 and 1.007 and 0.999	1.033	1.103 and 1.025 and 0.972	0.765	0.944 and 0.659 and 0.693	0.371	0.077	0.012	0.000	0.000	0.0006	0.000	158 nM	0.970	1.075 and 0.779 and 1.056	1.040	0.978 and 1.142 and 1.000	1.014	1.026 and 1.091 and 0.926	KCN survival assay value relative to DMSO control ([1]; 0.2 µM): 0.478 and 0.398 and 0.238; KCN survival assay value relative to DMSO control ([1]; 3.1 µM): 0.000; KCN survival assay value relative to DMSO control ([1]; 6.3 µM): 0.000; KCN survival assay value relative to DMSO control ([1]; 25 µM): 0.000; Value relative to DMSO control, drug alone (without KCN), Mean ([3]; 0.2 µM): 0.862; Value relative to DMSO control, drug alone (without KCN) ([3]; 0.2 µM): 0.850 and 0.960 and 0.775; Value relative to DMSO control, drug alone (without KCN), Mean ([3]; 0.4 µM): 0.811; Value relative to DMSO control, drug alone (without KCN) ([3]; 0.4 µM): 0.730 and 0.844 and 0.861; Value relative to DMSO control, drug alone (without KCN), Mean ([3]; 0.8 µM): 0.863; Value relative to DMSO control, drug alone (without KCN) ([3]; 0.8 µM): 0.803 and 1.008 and 0.777; Value relative to DMSO control, drug alone (without KCN), Mean ([3]; 3.1 µM): 0.927; Value relative to DMSO control, drug alone (without KCN) ([3]; 3.1 µM): 0.899 and 1.068 and 0.814; Value relative to DMSO control, drug alone (without KCN), Mean ([3]; 6.3 µM): 0.856; Value relative to DMSO control, drug alone (without KCN) ([3]; 6.3 µM): 0.946 and 0.940 and 0.683; Value relative to DMSO control, drug alone (without KCN), Mean ([3]; 12.5 µM): 0.986; Value relative to DMSO control, drug alone (without KCN) ([3]; 12.5 µM): 0.842 and 1.234 and 0.881; Value relative to DMSO control, drug alone (without KCN), Mean ([3]; 25 µM): 0.843; Value relative to DMSO control, drug alone (without KCN) ([3]; 25 µM): 0.680 and 1.053 and 0.797
CCCC/C=C\C/C=C\CCCCCCCCc1cccc(O)c1C(=O)O [6-heptadeca-9Z,12Z-dienyl salicylic acid]	–	–	–	–	–	–	–	–	–	–	–	–	–	–	–	–	–	–	–	–	Hit Type [4]: KCN; LC50 ([2]; read-out: C. elegans KCN Survival Assay LC50): 3970 nM
O=C(Nc1ccc(Oc2ccc(Cl)cc2)c(Cl)c1)c1cc(I)cc(I)c1O [Rafoxanide]	0.992	1.081 and 1.011 and 0.883	0.890	0.979 and 0.794 and 0.899	0.788	1.030 and 0.770 and 0.563	0.261	0.0026	0.0007	0.000	0.0019	0.000	0.000	141 nM	1.251	1.299 and 1.275 and 1.179	1.063	1.000 and 1.187	0.952	0.779 and 1.140 and 0.937	KCN survival assay value relative to DMSO control ([1]; 3.1 µM): 0.000; KCN survival assay value relative to DMSO control ([1]; 12.5 µM): 0.000; KCN survival assay value relative to DMSO control ([1]; 25 µM): 0.000; Value relative to DMSO control, drug alone (without KCN), Mean ([3]; 0.2 µM): 0.871; Value relative to DMSO control, drug alone (without KCN) ([3]; 0.2 µM): 0.876 and 1.068 and 0.668; Value relative to DMSO control, drug alone (without KCN), Mean ([3]; 0.4 µM): 0.805; Value relative to DMSO control, drug alone (without KCN) ([3]; 0.4 µM): 0.814 and 0.980 and 0.622; Value relative to DMSO control, drug alone (without KCN), Mean ([3]; 0.8 µM): 0.942; Value relative to DMSO control, drug alone (without KCN) ([3]; 0.8 µM): 0.867 and 0.978 and 0.981; Value relative to DMSO control, drug alone (without KCN), Mean ([3]; 3.1 µM): 0.954; Value relative to DMSO control, drug alone (without KCN) ([3]; 3.1 µM): 1.089 and 0.794 and 0.978; Value relative to DMSO control, drug alone (without KCN), Mean ([3]; 6.3 µM): 1.113; Value relative to DMSO control, drug alone (without KCN) ([3]; 6.3 µM): 1.082 and 1.203 and 1.055; Value relative to DMSO control, drug alone (without KCN), Mean ([3]; 12.5 µM): 1.298; Value relative to DMSO control, drug alone (without KCN) ([3]; 12.5 µM): 1.422 and 1.293 and 1.177; Value relative to DMSO control, drug alone (without KCN), Mean ([3]; 25 µM): 1.108; Value relative to DMSO control, drug alone (without KCN) ([3]; 25 µM): 1.103 and 1.144 and 1.075
Cc1cc(C(C#N)c2ccc(Cl)cc2)c(Cl)cc1NC(=O)c1cc(I)cc(I)c1O (stereo not drawn) [Closantel]	0.976	0.959 and 0.928 and 1.042	0.987	1.068 and 0.937 and 0.955	0.937	0.967 and 0.903 and 0.941	0.886	0.363	0.018	0.000	0.000	0.0065	0.0037	332 nM	1.096	1.270 and 1.000 and 1.019	0.995	1.190 and 0.812 and 0.983	0.999	1.131 and 0.827 and 1.040	KCN survival assay value relative to DMSO control ([1]; 0.2 µM): 1.054 and 0.849 and 0.755; KCN survival assay value relative to DMSO control ([1]; 0.4 µM): 0.480 and 0.444 and 0.164; KCN survival assay value relative to DMSO control ([1]; 6.3 µM): 0.000; Value relative to DMSO control, drug alone (without KCN), Mean ([3]; 0.2 µM): 1.003; Value relative to DMSO control, drug alone (without KCN) ([3]; 0.2 µM): 1.030 and 1.024 and 0.957; Value relative to DMSO control, drug alone (without KCN), Mean ([3]; 0.4 µM): 0.958; Value relative to DMSO control, drug alone (without KCN) ([3]; 0.4 µM): 1.006 and 0.910 and 0.957; Value relative to DMSO control, drug alone (without KCN), Mean ([3]; 0.8 µM): 1.081; Value relative to DMSO control, drug alone (without KCN) ([3]; 0.8 µM): 1.194 and 1.047 and 1.003; Value relative to DMSO control, drug alone (without KCN), Mean ([3]; 3.1 µM): 0.969; Value relative to DMSO control, drug alone (without KCN) ([3]; 3.1 µM): 1.240 and 0.805 and 0.863; Value relative to DMSO control, drug alone (without KCN), Mean ([3]; 6.3 µM): 1.048; Value relative to DMSO control, drug alone (without KCN) ([3]; 6.3 µM): 1.218 and 0.919 and 1.007; Value relative to DMSO control, drug alone (without KCN), Mean ([3]; 12.5 µM): 1.059; Value relative to DMSO control, drug alone (without KCN) ([3]; 12.5 µM): 1.241 and 0.872 and 1.065; Value relative to DMSO control, drug alone (without KCN), Mean ([3]; 25 µM): 0.703; Value relative to DMSO control, drug alone (without KCN) ([3]; 25 µM): 0.678 and 0.775 and 0.655
